According to patent publication US9351983B2, “Use of glycerophosphoinositols for the treatment of septic shock” (CONSIGLIO NAZIONALE DELLE RICERCHE, priority 2012, dated 2016):

Key:
[1] = test system: LPS-activated tissue-factor (TF) activity in human monocytes; test: Pro-coagulant activity of tissue factor (one-stage clotting time) in LPS-stimulated human monocytes; assay type: cell-based; conditions: for time at which inhibition of LPS-mediated TF activity is evident: 0.1 μg/ml LPS, 5 h versus 24 h (FIG. 2); for tissue-factor activity (pro-coagulant activity, one-stage clotting time): 50 μM to 300 μM, then 0.1 μg/ml LPS for 5 h and 24 h (FIG. 2)
Description: FIG. 2—The glycerophosphoinositols inhibit LPS-activated tissue-factor activity in human monocytes. Human monocytes were purified from peripheral blood of healthy donors and incubated at 37° C. for 20 min without or with different concentrations (from 50 μM to 300 μM) GroPIns or GroPIns4P, and for a further 5 h and 24 h in the absence and in presence of 0.1 μg/ml LPS from E. coli. […] Data are means (±SD) of three independent experiments performed with cells from different donors. Asterisks indicate statistically significant differences (*p=0.015; **p<0.005; ***p=0.0003) versus their respective controls. As shown, pro-coagulant activity was not detectable in untreated monocytes, and it was induced in a time-dependent manner by LPS stimulation.
The glycerophosphoinositol, differently from the PLA2IVα inhibitor, inhibits LPS-activated tissue-factor activity in human monocytes. Human monocytes were purified from peripheral blood of two healthy donors (experiment I and II) and pre-incubated at 37° C. for 20 min without (black line) or with 300 μM glycerophosphoinositol (GroPIns, blue line) or 0.5 μM PLA2IVα inhibitor (pyrrophenone, Pf, red line), and for a further 24 h in the absence or presence of increasing concentrations of LPS from E. coli (endotoxin).
The glycerophosphoinositol inhibits in a dose-dependent manner LPS-activated tissue-factor activity in human monocytes. Human monocytes were purified from peripheral blood of three healthy donors (experiments III, IV and V) and pre-incubated at 37° C. for 20 min without or with increasing concentrations of glycerophosphoinositol (GroPIns) and for a further 24 h in the absence or presence of 10 ng/ml of LPS from E. coli (endotoxin). […] The two insets in Exp IV and V show the pro-coagulant activity of tissue factor, assessed in cells stimulated by 10 ng/ml of endotoxin, with (filled bars) or without (dotted bars) 20 min pre-incubation at 37° C., in absence (Control) or in presence of 300 μM GroPIns.
The glycerophosphoinositols inhibit LPS-activated tissue-factor activity in human monocytes.
Human monocytes were obtained from whole blood collected from healthy donors (informed consent was obtained) and anticoagulated with 0.1 vol 3.8% sodium citrate/0.15 mol/l NaCl. The leukocytes were sedimented at 180×g for 15 min at 10° C. The sedimented cells were diluted to the initial volume with citrate-saline and sedimented again. This step was repeated to minimise platelet contamination. The cells were then layered onto Lymphoprep™, and centrifuged at 700×g for 20 min at 20° C. The ring of mononuclear cells was collected and sedimented at 620×g for 7 min at 8° C. The pellet was resuspended in citrate-saline and the cells were washed twice. Monocytes were purified using a discontinuous Percoll™ density gradient; the mononuclear cell preparation was resuspended in RPMI-1640 medium supplemented with 10% heat-inactivated foetal calf serum, and was layered onto a 46% isosmotic Percoll™ solution. After centrifugation at 20° C. for 30 min at 550×g, the cells at the RPMI-1640 medium/Percoll™ interface were collected and sedimented at 620×g. The pellet was resuspended in citrate-saline and the cells were washed twice. The final monocyte preparation was then resuspended in serum-free RPMI-1640 at the concentration required.
The pro-coagulant activity of tissue factor (TF activity) was measured in cell lysates according to one-stage clotting time [as reported in (Evangelista et al., Thromb Haemost. 2005; 94, 568-577)]. One hundred μl of cell lysates were added to 100 μl of 37° C. prewarmed normal human plasma. After 30 s, 100 μl 20 mM CaCl2 were added to the mixture and the clotting time was determined using a KC4A Amellung Coagulometer (Mascia Brunelli, Milan, Italy). The data were then converted in arbitrary units by interpolation with a standard curve generated with serial dilutions of human recombinant thromboplastin (Hemoliance, Instrumentation Laboratory).

[2] = test system: LPS-induced tissue-factor gene expression; test: Real-time RT-PCR of tissue factor mRNA in LPS-stimulated monocytes; assay type: cell-based, human; conditions: 300 μM, 0.1 μg/ml LPS for 24 h (chronic)
Description: FIG. 3—The glycerophosphoinositols inhibit LPS-induced tissue-factor gene expression. Freshly isolated human monocytes were incubated at 37° C. for 20 min without or with 300 μM GroPIns or GroPIns4P, and for a further 1.5 h or 24 h in the absence and presence of 0.1 μg/ml LPS. At each time point, the total RNA was extracted from cells by the thiocyanate/caesium chloride method and converted to cDNA. Real-time PCR measurements of tissue factor were performed using validated primers. GAPDH served as the house-keeping gene. Each sample was measured in triplicate and the data were calculated with the delta-delta method (2-DDCT) for comparing relative expression data. Monocytes incubated alone for different times were considered the control sample. Measurements of mRNA levels were expressed as fold-increase over control, and are means (±SD) of triplicates from one experiment that is representative of 4 experiments performed with cells from different donors (*p=0.016; **p=0.0052). […]
One μg total RNA (extracted through thiocyanate/caesium chloride method) was converted to cDNA using Moloney murine leukaemia virus reverse transcriptase (Applied Biosystems, Italy). […] Each sample was measured in triplicate and the data were analysed with the SDS 2.0 software (Applied Biosystems, Italy) by the delta-delta method (2-DDCT) for comparing relative expression results. […]

[3] = 300 μM, endotoxin 10 ng/ml for 24 h (FIG. 12)

O=P(O)(O)OC1[C@@H](O)[C@H](O)C(OP(=O)(O)OCC(O)CO)[C@@H](O)[C@H]1O (some centres unmarked) [GroPIns4P, glycerophosphoinositol 4-phosphate]
time at which inhibition of LPS-mediated TF activity is evident [1]: already effective at shorter times (5 h) | tissue-factor activity (pro-coagulant activity, one-stage clotting time) ([1]; 20 min pre-incubation): dose-dependent reduction in tissue-factor activity | TF activity [1, 3]: reduce TF activity | efficacy in reducing TF activity compared with GroPIns [1, 3]: higher efficacy than GroPIns | inhibition of LPS-induced tissue factor mRNA levels [2]: completely ineffective

O=P(O)(OCC(O)CO)OC1C(O)C(O)C(O)C(O)C1O (centres unmarked) [GroPIns, glycerophosphoinositol]
time at which inhibition of LPS-mediated TF activity is evident [1]: mainly evident at long times (24 h) | tissue-factor activity (pro-coagulant activity, one-stage clotting time) ([1]; 20 min pre-incubation): dose-dependent reduction in tissue-factor activity | TF activity ([1]; 300 μM, 20 min pre-incubation, increasing concentrations of endotoxin for 24 h (FIG. 10)): reduces TF activity | TF activity [1, 3]: reduce TF activity | TF activity ([1]; increasing concentrations of compound, endotoxin 10 ng/ml for 24 h (FIG. 11)): dose-dependently reduces TF activity | inhibition of LPS-induced tissue factor mRNA levels [2]: ~60%
